Values of other authors, collected in patent US9005898B2, “Method for controlling hair growth, method for selecting or evaluating hair growth control agent, and hair growth suppression agent” (Kao Corporation, priority 2010, dated 2015).

Tested on: human hair follicle
Conditions: in a dose-dependent manner; Patent Document 7

**Q.** For `O=CN1CC/C(=C\c2ccc3c(c2)OCO3)C1=O` [KNK437], which “growth of the human hair follicle” value is on record?
**A.** reduced
